According to patent US9321756B2, “Azole compounds as PIM inhibitors” (priority 2011, dated 2016):
Like-named read-outs stand apart in the source and are kept apart here.

Tests used:
[1] = biological target: full length recombinant Pim-1 (Homo sapiens (Human), UniProt P11309); experiment: Pim enzyme assay (HTRF, phosphorylation of biotinylated-BAD (S112) peptide), Pim-1; assay type: biochemical
[2] = test system: Pim-2 stably transfected U2OS human osteogenic sarcoma line; experiment: Pim cell assay U2OS (phospho-BAD normalized against total BAD), Pim-2 transfected; assay type: cell-based; conditions: read-out: U2OS Pim2_Cell_IC50
Experimental: (§1) The cell lines used in the assay were generated by the stable transfection of either Pim-1 or Pim-2 into the U2OS human osteogenic sarcoma line. The assay for determination of the Pim activity in the engineered U2OS cell lines measures levels of phospho-BAD normalized against total BAD protein levels. It was conducted as follows:
(§2) The adherent cells were dissociated from the flasks using non-enzymatic cell dissociation solution (Sigma #C5914). […] The cells were then incubated overnight at 37° C., 5% CO2.
(§3) In addition to the 10-point dosing curve of the test compound, DMSO alone was run as the high control.
(§4) This dilution in DMSO was then diluted again into cell growth medium. Aliquots (12 μL) of the compound diluted in growth medium were then transferred to the appropriate wells of the 96-well plates containing cells to a final DMSO concentration of 0.3%. The cell plates were then incubated with compound for 29 min at 37° C., 5% CO2.
(§5) The cell plates containing lysis buffer were then immediately stored at −70° C.
(§6) These prepared lysates were then assayed for phospho and total BAD according to the manufacturer's protocols (Meso Scale Diagnostics, Cat#K15103C-3 & #K15103D-3). The plates were read on the MSD Sector Imager 6000, and results were calculated according to the assay protocols ((% Phosphoprotein=((2×Phospho signal)/(Phospho signal+Total signal))×100)).

[3] = biological target: full length recombinant Pim-2 (Homo sapiens (Human), UniProt Q9P1W9); experiment: Pim enzyme assay (HTRF, phosphorylation of biotinylated-BAD (S112) peptide), Pim-2; assay type: biochemical; conditions: read-out: Pim2_IC50
[4] = test system: Pim-1 stably transfected U2OS human osteogenic sarcoma line; experiment: Pim cell assay U2OS (phospho-BAD normalized against total BAD), Pim-1 transfected; assay type: cell-based
Experimental: as §1, §2, §3, §4, §5, §6

[5] = biological target: full length recombinant Pim-3 (Homo sapiens (Human), UniProt Q86V86); experiment: Pim enzyme assay (HTRF, phosphorylation of biotinylated-BAD (S112) peptide), Pim-3; assay type: biochemical; conditions: Pim-3 enzyme assay; read-out: Pim3 IC50
Summary of the method: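 IC50 values were fitted with a 4-parameter logistic model to percent-of-control HTRF signal (Eu anti-phospho-BAD S112 antibody/streptavidin-APC). Reactions used full-length Pim-3 and biotin-BAD (S112) peptide, ran 1 h 30 min at RT (22 °C) in Hepes pH 7.0 buffer with BSA and DTT, and were stopped by 3 mM EDTA.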

[6] = Pim-1 enzyme assay, read-out: Pim_1_IC50
[7] = Homo sapiens, U2OS cells, Pim-2 transfected
[8] = Homo sapiens, U2OS, read-out: U2OS Pim1_Cell_IC50
[9] = Homo sapiens, U2OS, read-out: U2OS Pim1_Cell_IC50, U2OS cells, Pim-1 transfected

Chain of full length recombinant Pim-2 (Q9P1W9 whole entry): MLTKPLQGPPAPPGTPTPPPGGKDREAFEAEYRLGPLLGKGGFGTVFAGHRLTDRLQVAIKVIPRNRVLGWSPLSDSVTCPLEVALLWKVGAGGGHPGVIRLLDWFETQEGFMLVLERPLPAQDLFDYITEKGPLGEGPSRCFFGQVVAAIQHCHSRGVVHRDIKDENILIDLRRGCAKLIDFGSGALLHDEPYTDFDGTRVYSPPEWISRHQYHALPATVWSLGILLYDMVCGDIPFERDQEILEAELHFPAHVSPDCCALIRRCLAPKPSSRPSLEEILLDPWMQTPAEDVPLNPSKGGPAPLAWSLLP
Chain of full length recombinant Pim-1 (P11309 whole entry): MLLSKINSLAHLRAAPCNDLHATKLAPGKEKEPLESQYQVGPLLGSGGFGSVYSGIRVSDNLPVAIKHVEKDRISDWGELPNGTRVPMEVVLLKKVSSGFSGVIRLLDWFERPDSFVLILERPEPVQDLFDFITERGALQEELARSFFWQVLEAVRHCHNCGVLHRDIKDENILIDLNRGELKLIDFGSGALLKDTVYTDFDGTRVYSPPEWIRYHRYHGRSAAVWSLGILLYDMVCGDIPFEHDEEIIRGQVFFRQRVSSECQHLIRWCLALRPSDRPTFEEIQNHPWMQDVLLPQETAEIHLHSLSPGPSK

| IC50 [1, 6] [nM] | IC50 ([3]; Pim-2 enzyme assay) [nM] | Compound | IC50 [2, 7] [nM] | IC50 [4, 8] [nM] | also measured |
| --- | --- | --- | --- | --- | --- |
| 16.1 | 48.9 | CC1COCCN1c1nnc(-c2ccc3[nH]cc(-c4cncc(C5CC5)n4)c3c2)o1 (stereo in doubt) [Example 249, 3-(6-cyclopropyl-2-pyrazinyl)-5-(5-((3R)-3-methyl-4-morpholinyl)-1,3,4-oxadiazol-2-yl)-1H-indole] |  |  | IC50 ([2]; U2OS cells, Pim-2 transfected): > 31600 nM; IC50 ([4]; read-out: U2OS Pim1_Cell_IC50, U2OS cells, Pim-1 transfected): 375 nM |
| 9.66 | 29.8 | CC[C@@H]1COCCN1c1nnc(-c2ccc3[nH]cc(-c4cncc(C5CC5)n4)c3c2)o1 (stereo in doubt) [Example 252, 3-(6-cyclopropyl-2-pyrazinyl)-5-(5-(3-ethyl-4-morpholinyl)-1,3,4-oxadiazol-2-yl)-1H-indole] | > 31600 | 310 |  |
| 61.3 | 459 | CN1CCN(c2cnc(-c3c[nH]c4ccc(-c5nnc(N)s5)cc34)cn2)CC1 [Example 178, 5-(3-(5-(4-methyl-1-piperazinyl)-2-pyrazinyl)-1H-indol-5-yl)-1,3,4-thiadiazol-2-amine] |  |  | IC50 [5]: 54.1 nM; IC50 [4, 9]: 2250 nM |
| 98.1 | 223 | Nc1nnc(-c2ccc3[nH]cc(-c4cccc(N5CCCCC5=O)n4)c3c2)s1 [Example 181, 1-(6-(5-(5-amino-1,3,4-thiadiazol-2-yl)-1H-indol-3-yl)-2-pyridinyl)-2-piperidinone] |  | 2260 | IC50 [5]: 47 nM |
|  | 9.65 | CC(C)Nc1cncc(-c2c[nH]c3ccc(-c4nnc(N)s4)cc23)n1 [Example 206, 6-(5-(5-amino-1,3,4-thiadiazol-2-yl)-1H-indol-3-yl)-N-(1-methylethyl)-2-pyrazinamine] | 945 |  | IC50 [5]: 1.15 nM |
| 3.15 | 18.1 | Nc1nnc(-c2ccc3[nH]cc(-c4cncc(NC5CCCCC5)n4)c3c2)s1 [Example 208, 6-(5-(5-amino-1,3,4-thiadiazol-2-yl)-1H-indol-3-yl)-N-cyclohexyl-2-pyrazinamine] | 2600 |  | IC50 [4, 9]: 56.3 nM |
|  | 730 | Nc1ncc(-c2ccc3[nH]cc(-c4cccc(N5CCOCC5)n4)c3c2)s1 [Example 213, 5-(3-(6-(4-morpholinyl)-2-pyridinyl)-1H-indol-5-yl)-1,3-thiazol-2-amine] |  | 1520 | IC50 [1]: 94.9 nM; IC50 [5]: 44.4 nM |
| 20.3 |  | c1cc2[nH]cc(-c3cncc(C4CC4)n3)c2cc1-c1nnc(N2CCOCC2)o1 [Example 245, 3-(6-cyclopropyl-2-pyrazinyl)-5-(5-(4-morpholinyl)-1,3,4-oxadiazol-2-yl)-1H-indole] | > 31600 |  | IC50 [4, 9]: 217 nM |

Continued, molecule first:

| Compound | IC50 [1, 6] [nM] | IC50 ([3]; Pim-2 enzyme assay) [nM] | IC50 [2, 7] [nM] | IC50 [4, 8] [nM] | also measured |
| --- | --- | --- | --- | --- | --- |
| Nc1nnc(-c2ccc3[nH]cc(-c4cccc(NC5CCCC5)n4)c3c2)s1 [Example 16, 5-(3-(6-(cyclopentylamino)pyridin-2-yl)-1H-indol-5-yl)-1,3,4-thiadiazol-2-amine 2,2,2-trifluoroacetate] |  |  |  |  | IC50 ([2]; Homo sapiens, U2OS): 3090 nM; IC50 [3]: 21.1 nM |
| CNc1nnc(-c2ccc3[nH]cc(-c4cccc(OC(C)C)n4)c3c2)o1 [Example 41, 5-(3-(6-isopropoxypyridin-2-yl)-1H-indol-5-yl)-N-methyl-1,3,4-oxadiazol-2-amine] | 6.48 |  | 1320 |  | IC50 [3]: 19.6 nM; IC50 [4, 9]: 124 nM |
| c1cc(C2CC2)nc(-c2c[nH]c3ccc(-c4nnc(C5CC5)o4)cc23)n1 [Example 43, 2-cyclopropyl-5-(3-(4-cyclopropylpyrimidin-2-yl)-1H-indol-5-yl)-1,3,4-oxadiazole] | 7.58 | 4.32 | 3390 | 247 |  |
| c1cc2[nH]cc(-c3cncc(C4CC4)n3)c2cc1-c1nnc(C2CC2)o1 [Example 44, 2-Cyclopropyl-5-(3-(6-cyclopropylpyrazin-2-yl)-1H-indol-5-yl)-1,3,4-oxadiazole] | 9.92 | 26 | > 31600 | 628 |  |
| FC(F)(F)CNc1nnc(-c2ccc3[nH]cc(-c4nccc(C5CC5)n4)c3c2)o1 [Example 53, 5-(3-(4-cyclopropylpyrimidin-2-yl)-1H-indol-5-yl)-N-(2,2,2-trifluoroethyl)-1,3,4-oxadiazol-2-amine] | 0.407 | 0.638 | 475 | 34.5 |  |
| CC(C)Nc1cncc(-c2c[nH]c3ccc(-c4nc(N)ns4)cc23)n1 [Example 64, 5-(3-(6-(isopropylamino)pyrazin-2-yl)-1H-indol-5-yl)-1,2,4-thiadiazol-3-amine] | 4.26 | 58.7 | > 10000 | 200 |  |
| Nc1nnc(-c2ccc3[nH]cc(-c4nccc(OCC(F)(F)F)n4)c3c2)o1 [Example 110, 5-(3-(4-(2,2,2-trifluoroethoxy)-2-pyrimidinyl)-1H-indol-5-yl)-1,3,4-oxadiazol-2-amine] | 4.68 | 2.38 | 1630 | 219 |  |
| CN1CCCC(Nc2ccnc(-c3c[nH]c4ccc(-c5nnc(N)o5)cc34)n2)C1 (stereo not drawn) [Example 111, 2-(5-(5-amino-1,3,4-oxadiazol-2-yl)-1H-indol-3-yl)-N-(1-methyl-3-piperidinyl)-4-pyrimidinamine] | 18.6 | 6.59 | > 31600 | > 31600 |  |
| CN1CCCC(Oc2ccnc(-c3c[nH]c4ccc(-c5nnc(N)o5)cc34)n2)C1 (stereo not drawn) [Example 112, 5-(3-(4-((1-methyl-3-piperidinyl)oxy)-2-pyrimidinyl)-1H-indol-5-yl)-1,3,4-oxadiazol-2-amine] | 5.79 | 2.85 | 1160 | 180 |  |
| COC[C@H]1CCCN1c1ccnc(-c2c[nH]c3ccc(-c4nnc(N)o4)cc23)n1 [Example 113, 5-(3-(4-((2R)-2-(methoxymethyl)-1-pyrrolidinyl)-2-pyrimidinyl)-1H-indol-5-yl)-1,3,4-oxadiazol-2-amine] | 13.7 | 25.7 | > 10000 | 380 |  |
| Nc1nnc(-c2ccc3[nH]cc(-c4cncc(-c5ccc(Cl)cc5)n4)c3c2)o1 [Example 114, 5-(3-(6-(4-chlorophenyl)-2-pyrazinyl)-1H-indol-5-yl)-1,3,4-oxadiazol-2-amine] | 12.6 | 25.1 | > 31600 |  | IC50 [4, 9]: 137 nM |
| CC(C)Oc1cccc(-c2c[nH]c3ccc(-c4nnc(N)s4)cc23)n1 [Example 157, 5-(3-(6-(1-methylethoxy)-2-pyridinyl)-1H-indol-5-yl)-1,3,4-thiadiazol-2-amine] | 7.77 | 10.1 | 2220 | 106 |  |
| Nc1nnc(-c2ccc3[nH]cc(-c4cccc(N5CCCCC5)n4)c3c2)s1 [Example 172, 5-(3-(6-(1-piperidinyl)-2-pyridinyl)-1H-indol-5-yl)-1,3,4-thiadiazol-2-amine] | 40.5 | 68.8 | > 31600 | 414 |  |
| CC1CCN(c2cccc(-c3c[nH]c4ccc(-c5nnc(N)s5)cc34)n2)CC1 [Example 175, 5-(3-(6-(4-methyl-1-piperidinyl)-2-pyridinyl)-1H-indol-5-yl)-1,3,4-thiadiazol-2-amine] | 41.4 | 117 |  | 682 | IC50 [5]: 17.7 nM |
